Here are results for 3 molecules from US20030066102A1, “Plant gene for p-hydroxyphenylpyruvate dioxygenase” (priority 1996, published 2003).

Data set [1] deals with T1, Plant p-Hydroxyphenylpyruvate Dioxygenase (Arabidopsis enzyme overexpressed in E. coli) (Arabidopsis thaliana, UniProt P93836).
T1 construct: The first 11 cycles identified […]; initiator Met (ATG start codon put in front of Ser30 by oligos CAM32/CAM33) (N, cleaved yes); made in house; host or cells: E. coli BL21(DE3) carrying pE24CP1 (pET24c(+) backbone), IPTG-induced; cell extract
T1 sequence (P93836 30-445): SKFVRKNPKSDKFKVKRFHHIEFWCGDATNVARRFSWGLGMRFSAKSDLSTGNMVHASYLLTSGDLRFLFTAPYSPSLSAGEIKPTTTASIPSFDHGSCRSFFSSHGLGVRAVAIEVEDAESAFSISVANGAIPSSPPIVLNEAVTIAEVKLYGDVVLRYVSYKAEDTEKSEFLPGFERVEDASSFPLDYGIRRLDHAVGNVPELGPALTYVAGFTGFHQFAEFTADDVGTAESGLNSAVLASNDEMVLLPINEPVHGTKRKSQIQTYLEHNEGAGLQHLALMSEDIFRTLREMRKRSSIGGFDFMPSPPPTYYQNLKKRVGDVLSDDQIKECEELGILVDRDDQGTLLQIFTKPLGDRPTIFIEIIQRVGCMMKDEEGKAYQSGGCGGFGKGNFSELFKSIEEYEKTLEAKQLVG
The data set can be described thus: 14CO2 release assay from 14C-p-hydroxyphenylpyruvate with overexpressed protein. The data set is classed as biochemical. On the procedure:
Cell cultures with different plasmid constructs were extracted as described above and assayed by measuring the formation of ^14Co2 from [1-^14C]-p-hydroxyphenylpyruvate or ^14CO2 and ^14C-homogentisate from [U-^14C]-p-hydroxyphenylpyruvate (Lindblad, B., (1971) Clin. Chim. Acta 34:113-121; and Lindstedt, S. and Odelhog, B., (1987) Methods in Enzymology 142:143-148). The labeled substrate was prepared from [1-^14C]-L-tyrosine (55 mCi/mmol; American Radiolabeled Chemicals, Inc., St. Louis, Mo.) or [U-^14C]-L-tyrosine (498 mCi/mmol; DuPont NEN, Boston, Mass.). […]
The assay was performed in 14 mL culture tubes capped with serum stoppers through which a polypropylene well containing 200 μL of 1 N KOH was suspended. […] Six mL of Formula-989 scintillation fluid (Packard Insturments, Meriden, Conn.) was added to the vials and the ^14C radioactivity was determined by scintillation counting.
The enzymatic activity of the overexpressed protein is inhibited by two herbicides known to inhibit plant p-hydroxyphenylpyruvate dioxygenase: Sulcotrione (2-(2-chloro-4-methanesulfonylbenzoyl)-1,3-cyclohexanedione); and Isoxaflutole (5-cyclopropylisoxazol-4-yl 2-mesyl-4-trifluoromethylphenyl ketone). […] The I50 values (concentration inhibiting the enzyme 50%) were calculated based on the percent inhibition observed over several concentrations of the inhibitor.

Data set [2] addresses T1, Plant p-Hydroxyphenylpyruvate Dioxygenase (Arabidopsis enzyme overexpressed in E. coli). The data set can be described thus: continuous spectrophotometric enol borate-tautomerase assay with overexpressed protein. Type of data set: biochemical. As for the experimental part: The overexpressed protein was also assayed spectrophotometrically at ambient temperature using the enol borate-tautomerase assay (Lin, E. C. C. et al., (1958) J. Biol. Chem. 233:668-673). The assay buffer contained 0.4 M borate (adjusted to pH 7.2 with 0.2 M sodium borate), 4 mM ascorbate, 2.5 mM EDTA, 40 μM p-hydroxyphenylpyruvate, and 0.5 units of tautomerase (Sigma T-6004) per 10 mL buffer. The reaction mix was used when the tautomerization of the substrate was complete (when absorbance at 308 nm had stabilized). The assay was initiated by adding 40 μL of the cell extracts to 960 μL of the assay buffer, and the reaction was followed by measuring the decrease in absorbance at 308 nm.
The enzymatic activity of the overexpressed protein is inhibited by two herbicides known to inhibit plant p-hydroxyphenylpyruvate dioxygenase: Sulcotrione (2-(2-chloro-4-methanesulfonylbenzoyl)-1,3-cyclohexanedione); and Isoxaflutole (5-cyclopropylisoxazol-4-yl 2-mesyl-4-trifluoromethylphenyl ketone). These two compounds were tested against the overexpressed protein using both the ^14CO2 and the continuous spectrophotometric enol borate-tautomerase assays. Both compounds were added to the assay buffers in 10 μL of acetone or dimethyl sulfoxide. The I50 values (concentration inhibiting the enzyme 50%) were calculated based on the percent inhibition observed over several concentrations of the inhibitor.

Data set [3] is described as follows: storage stability of purified enzyme constructs, activity by tautomerase coupled spectrophotometric assay. The data set is classed as physicochemical, Arabidopsis thaliana. Particulars: 1 mg/mL in 20 mM bis tris-propane buffer pH 7.2, 5 mM ascorbate, 1 mM reduced glutathione, 0.1 mM ferrous ammonium sulfate, stored at 4 °C. An excerpt:
Two different constructs for Arabidopsis thaliana p-hydroxyphenyl-pyruvate dioxygenase, one containing the full-length sequence, PDO-B as described in Example 5 and produced from plasmid pE24PDO-B, and one containing the truncated sequence lacking the putative chloroplast leader sequence, PDO-A as produced from plasmid pE24CP1, were both purified to the same extent using a Pharmacia phenyl Sepharose hydrophobic interaction column followed by gel filtration chromatography on Pharmacia Sephacryl 300. The two proteins were diluted to 1 mg/mL in 20 mM bis tris-propane buffer, pH 7.2 containing 5 mM ascorbate, 1 mM reduced glutathione and 0.1mM ferrous ammonium sulfate and stored in a refrigerator at 4 ° C. for up to 10 days. Aliquots were removed at various times and assayed for activity using the tautomerase coupled spectrophotometric assay. […] In addition, the activity of the full length enzyme could be restored by incubation with iron and reducing agent, reduced glutathione or ascorbate, or by dialysis against buffer containing iron and reducing agent. In contrast, the activity of the truncated enzyme could not be restored by incubation with or dialysis against buffer containing iron and reducing agent.

Regarding `CS(=O)(=O)c1cc(C(F)(F)F)ccc1C(=O)c1cnoc1C1CC1` [isoxaflutole, 5-cyclopropylisoxazol-4-yl 2-mesyl-4-trifluoromethylphenyl ketone], the IC50 in data set [1] (concentration inhibiting the enzyme 50%, inhibitor added in 10 μL acetone or dimethyl sulfoxide, read-out: I50 value derived from 14CO2 assay) is 409 nM; in data set [2] (concentration inhibiting the enzyme 50%, absorbance at 308 nm, read-out: I50 value derived from spectrophotometric assay), 1040 nM.
As to `CS(=O)(=O)c1ccc(C(=O)C2C(=O)CCCC2=O)c(Cl)c1` [sulcotrione, 2-(2-chloro-4-methanesulfonylbenzoyl)-1,3-cyclohexanedione], the IC50 came to 43 nM in data set [1] and 44 nM in data set [2].

B1: PDO-B: full-length Arabidopsis thaliana p-hydroxyphenylpyruvate dioxygenase produced from plasmid pE24PDO-B (protein, UniProt P93836 1-445, looked up)
chain: MGHQNAAVSENQNHDDGAASSPGFKLVGFSKFVRKNPKSDKFKVKRFHHIEFWCGDATNVARRFSWGLGMRFSAKSDLSTGNMVHASYLLTSGDLRFLFTAPYSPSLSAGEIKPTTTASIPSFDHGSCRSFFSSHGLGVRAVAIEVEDAESAFSISVANGAIPSSPPIVLNEAVTIAEVKLYGDVVLRYVSYKAEDTEKSEFLPGFERVEDASSFPLDYGIRRLDHAVGNVPELGPALTYVAGFTGFHQFAEFTADDVGTAESGLNSAVLASNDEMVLLPINEPVHGTKRKSQIQTYLEHNEGAGLQHLALMSEDIFRTLREMRKRSSIGGFDFMPSPPPTYYQNLKKRVGDVLSDDQIKECEELGILVDRDDQGTLLQIFTKPLGDRPTIFIEIIQRVGCMMKDEEGKAYQSGGCGGFGKGNFSELFKSIEEYEKTLEAKQLVG
modifications: full-length
In the case of B1, the “half-life for the activity” value in data set [3] is given as 4 days.
